One test relates to IL-23p19. Description: LPS induced IL23p19 in THP-1 cells (with IFNγ primed) assay. The format is cell-based, Human. The settings on record: Homo sapiens, THP-1, 18 h, THP-1 cells, IFNγ primed, LPS 1 ug/mL, 18 hours, 10 pt; read-out: IL23-p19 ELISA, THP1-IFNy, LPS, 10 pt EC50. The essentials: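 THP-1 cells primed ~18 h with IFNγ (50 ng/mL), pre-incubated 1 h with compound at 37 °C, then stimulated 18 h with LPS (1 ug/mL final). Supernatant IL-23p19 measured by sandwich ELISA with chemiluminescent read-out; EC50 from curve fitting. Toxicity checked on the remaining cells by Cell Titer Glo.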

The subject of another test is IL-23 (p19/p40). Kind of test: IL23-p19 ELISA, Dendritic, LPS (compound screening using DC cells). The format is cell-based, Human. The settings on record: Homo sapiens, 18 h, PBMC-derived DC cells, IFNγ primed, LPS 1 μg/ml, 18 hours, 10 pt; read-out: IL23-p19 ELISA, Dendritic, LPS, 10 pt, EC50. The essentials: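 Human PBMC-derived dendritic cells (7 d GM-CSF 100 ng/ml + IL-4 20 ng/ml), primed 24 h with IFNγ 50 ng/ml, pre-incubated 1 h with compound, then stimulated 18 h with LPS 1 μg/ml. Supernatant IL-23 measured by p19-capture/p40-detection chemiluminescent ELISA; CellTiter Glo checks cytotoxicity.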
On the technique in general: ELISA stands for enzyme-linked immunosorbent assay.

The results in this text go back to patent US10208074B2, “Pyrazole compounds and method for making and using the compounds” (Rigel Pharmaceuticals, Inc., priority 2015, dated 2019).

Counter-ions that a name gives are not always drawn.

A word on the EC50: it is the concentration needed to bring the measured effect to its halfway point. Take `Cc1n[nH]cc1-c1nc(C(=O)Nc2cn(C(F)F)nc2-c2ccccn2)cs1` [II-96, N-(1-(difluoromethyl)-3-(pyridin-2-yl)-1H-pyrazol-4-yl)-2-(3-methyl-1H-pyrazol-4-yl)thiazole-4-carboxamide]: the EC50 stood at 83.7 nM with IL-23p19 and 457 nM with IL-23 (p19/p40).

With `Cc1n[nH]cc1-c1nc(C(=O)Nc2cn(C3COC3)nc2-c2ccccn2)cs1` [II-41, 2-(3-methyl-1H-pyrazol-4-yl)-N-(1-(oxetan-3-yl)-3-(pyridin-2-yl)-1H-pyrazol-4-yl)thiazole-4-carboxamide, formic acid salt], the EC50 in the test with IL-23p19 came out at 41.3 nM; in the test with IL-23 (p19/p40), 18.8 nM.

Turning to `CCO[C@H]1CC[C@H](n2cc(NC(=O)c3ccc(-c4cn[nH]c4)o3)c(-c3ccccn3)n2)CC1` [Compound I-130, N-(1-((1r,4r)-4-ethoxycyclohexyl)-3-(pyridin-2-yl)-1H-pyrazol-4-yl)-5-(1H-pyrazol-4-yl)furan-2-carboxamide formate], the EC50 in the test on IL-23p19 was determined as 48.3 nM; with IL-23 (p19/p40) it was 23 nM.

On to `Cn1cc(NC(=O)c2csc(-c3cn[nH]c3)n2)c(-c2ccccn2)n1` [II-26, N-(1-methyl-3-(pyridin-2-yl)-1H-pyrazol-4-yl)-2-(1H-pyrazol-4-yl)thiazole-4-carboxamide], for which the concentration for a half-maximal effect (EC50) in the test on IL-23p19 was determined as 77.1 nM; with IL-23 (p19/p40) it was 112 nM.

On to `O=C(Nc1cn(CC(F)(F)F)nc1-c1ccccn1)c1ccc(-c2cn[nH]c2)o1` [Compound I-117, 5-(1H-pyrazol-4-yl)-N-(3-(pyridin-2-yl)-1-(2,2,2-trifluoroethyl)-1H-pyrazol-4-yl)furan-2-carboxamide], for which the 50% effective concentration (EC50) was 284 nM in the test with IL-23p19 and 25.7 nM in the test with IL-23 (p19/p40).

On to `CN(C)C(=O)n1cc(NC(=O)c2csc(-c3cn[nH]c3)n2)c(-c2ccccn2)n1` [II-125, N-(1-(dimethylcarbamoyl)-3-(pyridin-2-yl)-1H-pyrazol-4-yl)-2-(1H-pyrazol-4-yl)thiazole-4-carboxamide], for which the EC50 in the test with IL-23p19 came to 1240 nM; in the test with IL-23 (p19/p40) it was 27300 nM.

`O=C(Nc1cn([C@H]2C[C@@H](OCC(F)(F)F)C2)nc1-c1ccccn1)c1ccc(-c2cn[nH]c2)o1` [Compound I-146, 5-(1H-pyrazol-4-yl)-N-(3-(pyridin-2-yl)-1-((1s,3s)-3-(2,2,2-trifluoroethoxy)cyclobutyl)-1H-pyrazol-4-yl)furan-2-carboxamide formate]: the EC50 with IL-23p19 turned out to be 149 nM; in the test on IL-23 (p19/p40) it was 370 nM.

Turning to `CCO[C@H]1C[C@H](n2cc(NC(=O)c3ccc(-c4cn[nH]c4)o3)c(-c3ccccn3)n2)C1` [Compound I-27, N-(1-((1,3-trans)-3-ethoxycyclobutyl)-3-(pyridin-2-yl)-1H-pyrazol-4-yl)-5-(1H-pyrazol-4-yl)furan-2-carboxamide], the half-maximal effective concentration (EC50) with IL-23p19 was 159 nM; in the test on IL-23 (p19/p40), 15.8 nM.

Consider `CCO[C@H]1CC[C@H](n2cc(NC(=O)c3csc(-c4cn[nH]c4)n3)c(-c3ccccn3)n2)CC1` [II-145, N-(1-((trans)-4-ethoxycyclohexyl)-3-(pyridin-2-yl)-1H-pyrazol-4-yl)-2-(1H-pyrazol-4-yl)thiazole-4-carboxamide], for which the values for the EC50 in the test with IL-23p19 and in the test on IL-23 (p19/p40) were 66 nM and 78.4 nM, respectively.

As to `O=C(Nc1cn(C2CCOC2)nc1-c1nccs1)c1ccc(-c2cn[nH]c2)o1` (stereo not shown) [Compound I-120, 5-(1H-pyrazol-4-yl)-N-(1-(tetrahydrofuran-3-yl)-3-(thiazol-2-yl)-1H-pyrazol-4-yl)furan-2-carboxamide formate], the values for the half-maximal effective concentration (EC50) in the test on IL-23p19 and in the test with IL-23 (p19/p40) were 52.8 nM and 94.8 nM, respectively.

Turning to `CN1CCN(c2ccc(-c3nn(C)cc3NC(=O)c3ccc(-c4cn[nH]c4)o3)nc2)CC1` [Compound I-106, N-(1-methyl-3-(5-(4-methylpiperazin-1-yl)pyridin-2-yl)-1H-pyrazol-4-yl)-5-(1H-pyrazol-4-yl)furan-2-carboxamide], the half-maximal effective concentration (EC50) with IL-23p19 was 18900 nM; in the test with IL-23 (p19/p40) it was 1220 nM.
